Test results reported in the pKa sets of Baltruschat and Czodrowski (2020).

Work on `Cc1cccc(C(C)C)c1O` yielded a pKa (acidic group) of 10.8.

Work on `CCCCCCCCCCCCCCCCN(CC(O)CC)CC(O)CC` (stereo not drawn) yielded a pKa (basic group) of 5.6.

For `CC1=Nc2ccccc2N=C(C)C1`, the pKa (basic group) was 3.85.

`Nc1ccc2[nH]ncc2c1` showed a pKa (basic group) of 5.15.

Compound `CN(C)CCCC(=O)Oc1ccccc1` has a pKa (basic group) of 9.7.

Work on `c1ccc(-c2nn[nH]n2)cc1` yielded a pKa (acidic group) of 4.53.

For `c1ccc2c(c1)CCCN2`, the pKa (basic group) was 4.96.

`COc1cc2ccccc2cc1C(=O)O` gave a pKa (acidic group) of 3.82.

In the case of `c1nc(NC2CCCCC2)c2[nH]cnc2n1`, the pKa (acidic group) is reported as 10.2 and the pKa (basic group) is reported as 4.2.

Work on `Nc1ccc2cc3cc(Cl)ccc3nc2c1` yielded a pKa (basic group) of 6.95.

`COc1cc(S(C)=O)ccc1-c1cn2ccnc(OC)c2n1` (stereo not drawn) showed a pKa (basic group) of 2.46.

With `CC(C)CNc1ccccc1` the pKa (basic group) was 4.84.

For `[O-]c1cnc2ccccc2n1`, the pKa (basic group) was 9.1.

Compound `N#CN` has a pKa (basic group) of 1.1.

With `CC(=O)CC(=O)C(C)(C)C` the pKa (acidic group) was 9.94.

Compound `Cc1nccc2c1[nH]c1cc(O)ccc12` has a pKa (acidic group) of 9.47 and a pKa (basic group) of 7.39.

`CNc1ncnc2[nH]ncc12` showed a pKa (acidic group) of 10.6 and a pKa (basic group) of 4.53.

`CC(=O)C(Cc1ccc(C#N)cc1)C(C)=O` showed a pKa (acidic group) of 9.69.

In the case of `CN1CCCC2CCN=C21` (stereo not drawn), the pKa (basic group) is reported as 11.5.

`C=CCC1(C2C=CCCC2)C(=O)[N-]C(=S)NC1=O` (stereo not drawn) gave a pKa (acidic group) of 12.2.

With `CSCC(=O)O` the pKa (acidic group) was 3.67.

For `CC(C)(C)c1ccccn1`, the pKa (basic group) was 5.72.

`COCc1ccc(C(=O)O)cc1` gave a pKa (acidic group) of 4.18.

Compound `CC1CCCN(C(C)C=C(c2cccs2)c2cccs2)C1` (stereo not drawn) has a pKa (basic group) of 8.28.

`O=C(CN1CCCCC1)Nc1ccccc1` showed a pKa (basic group) of 7.85.

`C/C=C/C=C/C(=O)O` gave a pKa (acidic group) of 4.53.

For `C=C(C)C(=O)OCCNCC(C)C`, the pKa (basic group) was 8.91.

With `C[NH+](C)CCCCN1C=Nc2cccc3cccc1c23` the pKa (basic group) was 5.3.

`N#CC(C#N)=NNc1ccc(C(=O)CCl)cc1` showed a pKa (basic group) of -0.76.

Work on `CC[NH+](CC)CCCC(C)Nc1ccnc2cc(Br)ccc12` (stereo not drawn) yielded a pKa (basic group) of 8.1.

In the case of `CCn1ccnc1C`, the pKa (basic group) is reported as 8.09.

For `O=COO`, the pKa (acidic group) was 7.1.

With `CCNC(=O)CS` the pKa (acidic group) was 8.14.

With `O=C([O-])c1ccc(O)c2ncccc12` the pKa (acidic group) was 9.32 and the pKa (basic group) was 4.8.

Work on `COc1c2ccccc2nc2ccccc12` yielded a pKa (basic group) of 7.

Compound `[S-]c1ccncn1` has a pKa (basic group) of 6.7.

Compound `OC(C[S-])CS` has a pKa (acidic group) of 10.7.

`Cc1ccnc(NS(=O)(=O)c2ccc(Cl)cc2)n1` gave a pKa (acidic group) of 5.37.

Compound `C1CCN2CCCCN2C1` has a pKa (basic group) of 6.79.

`c1c(CN2CC[NH2+]CC[NH2+]CC2)n[nH]c1CN1CCNCC[NH2+]CC1` showed a pKa (basic group) of 6.08.

`C[N+](C)(C)[CH2][Sn]([CH3])([CH3])[CH3]` gave a pKa (acidic group) of 10.6.

Work on `S=c1[nH]c(=S)c2[nH]cnc2[nH]1` yielded a pKa (acidic group) of 5.02.

For `O=Cc1ccnc2ccccc12`, the pKa (basic group) was 4.25.

`O=C(NO)c1ccccn1` gave a pKa (acidic group) of 8.6.

`COc1ccnc2c1ccc1c(OC)ccnc12` showed a pKa (basic group) of 6.45.

In the case of `CSCCN`, the pKa (basic group) is reported as 9.41.

`CCCNCC(=O)O` gave a pKa (basic group) of 10.

For `CC(C)C1CC(CC(=O)O)[NH2+]C1C(=O)O` (stereo not drawn), the pKa (acidic group) was 2.1.

`Cc1nnn(CC(=O)O)n1` showed a pKa (acidic group) of 2.23.

`Brc1ccc(-c2nnn[nH]2)cc1` gave a pKa (acidic group) of 3.73.

With `NCCCCCc1ccccn1` the pKa (basic group) was 10.4.

Work on `C=CCN(CC(C)O)CC(C)O` (stereo not drawn) yielded a pKa (basic group) of 8.2.

In the case of `CC(=O)[n+]1ccc(N)cc1`, the pKa (acidic group) is reported as 9.15.

Compound `CN(C)Cc1cccc(NC(=O)/C=N/[O-])c1` has a pKa (basic group) of 9.12.

For `COc1nccc2ccccc12`, the pKa (basic group) was 3.05.

Work on `O=C(O)c1cccc2ccc[nH+]c12` yielded a pKa (acidic group) of 1.9.

`O=C(O)CC(=O)/C=N/O` gave a pKa (acidic group) of 3.5.

With `Cc1cc([C@@H]([NH3+])CO)c(O)c([C@@H]([NH3+])CO)c1` the pKa (acidic group) was 6.3.

Compound `N#CS` has a pKa (acidic group) of 0.85.

For `Cc1cc(C(c2ccc(N)cc2)c2ccc([NH3+])cc2)ccc1[NH3+]`, the pKa (basic group) was 2.6.

`c1ccc2nc3ccccc3nc2c1` gave a pKa (basic group) of 1.31.

In the case of `CNNC1CC[NH+](C(C)C)CC1`, the pKa (basic group) is reported as 6.2.

Work on `CC(=N\O)/C(CO)=N/O` yielded a pKa (acidic group) of 10.1.

With `CC[NH+](CC)CCCNC(=O)/C=N/O` the pKa (acidic group) was 8.75.

Compound `O=C(O)CCc1cccs1` has a pKa (acidic group) of 4.34.

In the case of `CN1[C@@H]2CC[C@H]1[C@H](C(=O)[O-])[C@@H](O)C2`, the pKa (basic group) is reported as 9.7.

`O=C([O-])c1cc2cc(Cn3ccnc3)ccc2o1` showed a pKa (basic group) of 7.17.

For `CCCCCCCCCCCCCCN(CC(C)O)CC(C)O` (stereo not drawn), the pKa (basic group) was 8.4.

In the case of `C#C[C@]1(O)C[C@@H](C)N(C)[C@@H]2CCCC[C@H]21`, the pKa (basic group) is reported as 9.53.

For `CCN(CC)CCCC(C)Nc1ccnc2ccc(OC)cc12` (stereo not drawn), the pKa (basic group) was 10.2.

With `Cc1cc(N)cc[n+]1[O-]` the pKa (basic group) was 4.1.

`COP(=O)(O)NS(=O)(=O)c1ccccc1` showed a pKa (acidic group) of 1.05.

With `Nc1ccc2ccncc2c1` the pKa (basic group) was 6.2.

Compound `O=C([O-])/C(=N/O)c1ccccc1` has a pKa (acidic group) of 11.6.

In the case of `N#CCCC(C(=O)O)c1ccccc1` (stereo not drawn), the pKa (acidic group) is reported as 3.92.

In the case of `CCN1CCCC=C1C`, the pKa (basic group) is reported as 11.6.

Compound `C#CCC(=O)O` has a pKa (acidic group) of 3.31.

`Cc1ccc(C)c(O)c1` gave a pKa (acidic group) of 10.4.

Compound `O=C(O)c1cc(=O)cc(-c2ccccc2)o1` has a pKa (acidic group) of 1.51.

Work on `CCCCCCCC(=O)N[C@H]1C(=O)N2[C@H]1SC(C)(C)[C@H]2C(=O)O` yielded a pKa (acidic group) of 2.66.

Compound `CCC1=CC(=O)C=C(CC)C1=NO` has a pKa (acidic group) of 8.34.

Compound `NC(=S)C1(N)CCCCC1` has a pKa (basic group) of 7.23.

`Oc1ccc(Cl)c(Cl)c1` showed a pKa (acidic group) of 8.58.

For `CC(C)(N)C(=O)O`, the pKa (basic group) was 10.2.
